These results are taken from patent US5955440A, “Macrolide LHRH antagonists” (Abbott Laboratories, priority 1998, dated 1999).

This assay concerns the target T1, LHRH rat pituitary receptor (Rattus norvegicus, UniProt P30969).
T1 construct: from tissue; host or cells: rat pituitary
T1 sequence (P30969 1-327): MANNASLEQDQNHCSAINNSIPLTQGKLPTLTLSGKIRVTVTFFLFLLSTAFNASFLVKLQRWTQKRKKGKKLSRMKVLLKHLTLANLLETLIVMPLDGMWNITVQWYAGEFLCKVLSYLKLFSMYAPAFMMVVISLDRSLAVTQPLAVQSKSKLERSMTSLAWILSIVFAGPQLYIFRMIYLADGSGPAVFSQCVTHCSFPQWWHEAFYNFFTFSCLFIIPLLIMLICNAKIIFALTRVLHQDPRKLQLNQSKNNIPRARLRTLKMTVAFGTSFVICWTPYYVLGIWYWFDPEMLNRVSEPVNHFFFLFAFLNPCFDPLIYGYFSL
As to the kind of experiment: LHRH rat pituitary receptor binding (pKI). The settings on record: negative logarithm of the equilibrium dissociation constants, Table 1, read-out: receptor binding affinity (pKI) (converted). The protocol: Representative compounds of the present invention were evaluated in in vitro tests for LHRH rat pituitary receptor binding (pKI) and for LH inhibition from rat pituitary cells for antagonist potency (pA2). The tests employed the methods detailed in F. Haviv, et al. J. Med. Chem., 32: 2340-2344 (1989). The receptor binding affinity (pKI) is the negative logarithm of the equilibrium dissociation constants.
Regarding `CC[C@H]1OC(=O)[C@H](C)[C@@H](O[C@H]2C[C@@](C)(OC)[C@@H](O)[C@H](C)O2)[C@H](C)[C@@H](O[C@@H]2O[C@H](C)C[C@H](N(C)Cc3ccc([N+](=O)[O-])s3)[C@H]2O)[C@](C)(OC)C[C@@H](C)C(=O)[C@H](C)[C@H]2N(CCc3ccc(Cl)c(Cl)c3)C(=O)O[C@]12C` [Example 66, 3'-N-Desmethyl-3'-N-[(5-nitro-2-thienyl]methyl-11-deoxy-11-[carboxy-(3,4-dichlorophenethylamino)]-6-O-methyl-erythromycin A 11,12-(cyclic carbamate)], the Ki was 1.38 nM.
Under `CC[C@H]1OC(=O)[C@H](C)[C@@H](O[C@H]2C[C@@](C)(OC)[C@@H](O)[C@H](C)O2)[C@H](C)[C@@H](O[C@@H]2O[C@H](C)C[C@H](N(C)Cc3ccc(-c4ccc(Cl)cc4)o3)[C@H]2O)[C@](C)(OC)C[C@@H](C)C(=O)[C@H](C)[C@H]2N(CCc3ccc(Cl)c(Cl)c3)C(=O)O[C@]12C` [Example 67, 3'-N-Desmethyl-3'-N-[5-(4-chlorophenyl)-2-furylmethyl]-11-deoxy-11-[carboxy-(3,4-dichlorophenethylamino)]-6-O-methyl-erythromycin A 11,12-(cyclic carbamate)] stands 7.76 nM; under `CC[C@H]1OC(=O)[C@H](C)[C@@H](O[C@H]2C[C@@](C)(OC)[C@@H](O)[C@H](C)O2)[C@H](C)[C@@H](O[C@@H]2O[C@H](C)C[C@H](N(C)Cc3ccc([N+](=O)[O-])o3)[C@H]2O)[C@](C)(OC)C[C@@H](C)C(=O)[C@H](C)[C@H]2N(CCc3ccc(Cl)c(Cl)c3)C(=O)O[C@]12C` [Example 68, 3'-N-Desmethyl-3'-N-[5-nitro-2-furylmethyl]-11-deoxy-11-[carboxy-(3,4-dichlorophenethylamino)]-6-O-methyl-erythromycin A 11,12-(cyclic carbamate)], 5.13 nM.
Regarding `CC[C@H]1OC(=O)[C@H](C)[C@@H](O[C@H]2C[C@@](C)(OC)[C@@H](O)[C@H](C)O2)[C@H](C)[C@@H](O[C@@H]2O[C@H](C)C[C@H](N(C)CC3CC(OC)OC3OC)[C@H]2O)[C@](C)(OC)C[C@@H](C)C(=O)[C@H](C)[C@H]2N(CCc3ccc(Cl)c(Cl)c3)C(=O)O[C@]12C` (stereo partly drawn) [Example 69, 3'-N-Desmethyl-3'-N-[2,5-dimethoxy-3-tetrahydrofurylmethyl]-11-deoxy-11-[carboxy-(3,4-dichlorophenethylamino)]-6-O-methyl-erythromycin A 11,12-(cycliccarbamate)], the Ki was 6.17 nM.
Under `CC[C@H]1OC(=O)[C@H](C)[C@@H](O[C@H]2C[C@@](C)(OC)[C@@H](O)[C@H](C)O2)[C@H](C)[C@@H](O[C@@H]2O[C@H](C)C[C@H](N(C)Cc3cccc(C)n3)[C@H]2O)[C@](C)(OC)C[C@@H](C)C(=O)[C@H](C)[C@H]2N(CCc3ccc(Cl)c(Cl)c3)C(=O)O[C@]12C` [Example 70, 3'-N-Desmethyl-3'-N-[6-methyl-2-pyridylmethyl]-11-deoxy-11-[carboxy-(3,4-dichlorophenethylamino)]-6-O-methyl-erythromycin A 11,12-(cyclic carbamate)] stands 5.89 nM; under `CC[C@H]1OC(=O)[C@H](C)[C@@H](O[C@H]2C[C@@](C)(OC)[C@@H](O)[C@H](C)O2)[C@H](C)[C@@H](O[C@@H]2O[C@H](C)C[C@H](N(C)CCCC(F)(F)F)[C@H]2O)[C@](C)(OC)C[C@@H](C)C(=O)[C@H](C)[C@H]2N(CCc3ccc(Cl)c(Cl)c3)C(=O)O[C@]12C` [Example 71, 3'-N-Desmethyl-3'-N-(4,4,4-trifluorobutyl)-11-deoxy-11-[carboxy-(3,4-dichlorophenethylamino)]-6-O-methyl-erythromycin A 11,12-(cyclic carbamate)], 6.17 nM.
